Laboratory results published in US8003660B2, “Modulators of muscarinic receptors” (Vertex Pharmaceuticals Incorporated, priority 2006, dated 2011).

Key:
Type in all cases: cell-based
M1 muscarinic receptor = biological target: T1, M1 muscarinic receptor (Homo sapiens, UniProt P11229); test: Functional mobilization of intracellular calcium (FLIPR) in CHO cells expressing M1; details: for EC50: CHO cells expressing M1, FLIPR calcium; for Emax: CHO, 100% = maximum response obtained with the Carbachol control, read-out: M1 Efficacy
T1 construct: expressed in transfected cells; host or cells: CHO (M1-CHO)
T1 sequence (P11229 1-460): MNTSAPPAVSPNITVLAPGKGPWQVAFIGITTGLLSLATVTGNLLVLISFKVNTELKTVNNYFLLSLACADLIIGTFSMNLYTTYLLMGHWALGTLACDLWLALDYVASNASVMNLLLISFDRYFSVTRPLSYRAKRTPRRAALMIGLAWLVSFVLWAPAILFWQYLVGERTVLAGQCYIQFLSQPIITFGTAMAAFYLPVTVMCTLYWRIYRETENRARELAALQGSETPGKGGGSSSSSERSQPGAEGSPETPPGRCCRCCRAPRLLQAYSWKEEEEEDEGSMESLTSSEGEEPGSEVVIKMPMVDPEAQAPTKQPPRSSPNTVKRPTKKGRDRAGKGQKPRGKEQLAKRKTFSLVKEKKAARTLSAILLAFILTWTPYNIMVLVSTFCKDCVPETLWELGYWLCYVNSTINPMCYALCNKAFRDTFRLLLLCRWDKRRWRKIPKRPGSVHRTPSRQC
In short: (§1)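 Calcium flux is read on FLIPR over 60 sec at 488/540 nm in muscarinic-receptor CHO lines. Antagonist mode adds carbachol at EC80 after 15 min compound preincubation or with simultaneous co-application. Agonist mode adds compound alone. Cells carry Fluo-3 or Calcium 3 dye in probenecid-containing pH 7.4 buffer, 0.5% DMSO final.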

M2 muscarinic receptor = biological target: T2, M2 muscarinic receptor (Homo sapiens, UniProt P08172); test: Functional mobilization of intracellular calcium (FLIPR) in CHO cells expressing M2; details: for EC50: CHO cells expressing M2, FLIPR calcium; for Emax: CHO, 100% = maximum response obtained with the Carbachol control, read-out: M2 Efficacy
T2 construct: expressed in transfected cells; host or cells: CHO (M2-CHO)
T2 sequence (P08172 1-466): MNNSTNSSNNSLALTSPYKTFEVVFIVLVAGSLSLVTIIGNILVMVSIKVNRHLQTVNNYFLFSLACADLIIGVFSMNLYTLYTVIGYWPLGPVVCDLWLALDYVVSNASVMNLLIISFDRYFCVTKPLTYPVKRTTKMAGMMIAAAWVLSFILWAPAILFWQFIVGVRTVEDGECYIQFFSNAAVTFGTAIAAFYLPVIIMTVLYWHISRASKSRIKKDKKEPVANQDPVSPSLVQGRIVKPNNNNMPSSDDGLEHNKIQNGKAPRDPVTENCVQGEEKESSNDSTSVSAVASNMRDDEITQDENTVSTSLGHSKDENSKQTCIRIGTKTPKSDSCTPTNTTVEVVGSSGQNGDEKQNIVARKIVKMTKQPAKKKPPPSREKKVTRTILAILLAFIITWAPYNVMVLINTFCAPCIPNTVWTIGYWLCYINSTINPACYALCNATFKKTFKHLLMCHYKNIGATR
In short: as §1

M3 muscarinic receptor = biological target: T3, M3 muscarinic receptor (Homo sapiens, UniProt P20309); test: Functional mobilization of intracellular calcium (FLIPR) in CHO cells expressing M3; details: for EC50: CHO cells expressing M3, FLIPR calcium; for Emax: CHO, 100% = maximum response obtained with the Carbachol control, read-out: M3 Efficacy
T3 construct: expressed in transfected cells; host or cells: CHO (M3-CHO)
T3 sequence (P20309 whole entry): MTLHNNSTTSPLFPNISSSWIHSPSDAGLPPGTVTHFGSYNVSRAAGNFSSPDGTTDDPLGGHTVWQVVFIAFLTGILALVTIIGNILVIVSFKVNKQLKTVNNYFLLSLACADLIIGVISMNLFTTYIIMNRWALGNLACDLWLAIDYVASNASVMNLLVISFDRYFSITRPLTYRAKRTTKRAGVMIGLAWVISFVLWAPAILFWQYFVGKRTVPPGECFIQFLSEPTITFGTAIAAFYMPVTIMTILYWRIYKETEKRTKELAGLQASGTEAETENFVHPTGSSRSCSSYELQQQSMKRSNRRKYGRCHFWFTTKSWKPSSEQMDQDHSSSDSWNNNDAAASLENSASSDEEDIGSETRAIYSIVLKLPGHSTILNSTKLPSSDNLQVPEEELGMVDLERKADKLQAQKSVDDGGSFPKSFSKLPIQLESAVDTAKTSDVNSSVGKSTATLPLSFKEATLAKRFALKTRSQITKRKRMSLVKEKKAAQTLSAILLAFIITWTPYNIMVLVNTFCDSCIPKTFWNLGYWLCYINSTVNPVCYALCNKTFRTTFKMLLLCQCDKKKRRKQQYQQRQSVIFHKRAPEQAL
In short: as §1

M4 muscarinic receptor = biological target: T4, M4 muscarinic receptor (Homo sapiens, UniProt P08173); test: Functional mobilization of intracellular calcium (FLIPR) in CHO cells expressing M4; details: for EC50: CHO cells expressing M4, FLIPR calcium; for Emax: CHO, 100% = maximum response obtained with the Carbachol control, read-out: M4 Efficacy
T4 construct: expressed in transfected cells; host or cells: CHO (M4-CHO)
T4 sequence (P08173 1-479): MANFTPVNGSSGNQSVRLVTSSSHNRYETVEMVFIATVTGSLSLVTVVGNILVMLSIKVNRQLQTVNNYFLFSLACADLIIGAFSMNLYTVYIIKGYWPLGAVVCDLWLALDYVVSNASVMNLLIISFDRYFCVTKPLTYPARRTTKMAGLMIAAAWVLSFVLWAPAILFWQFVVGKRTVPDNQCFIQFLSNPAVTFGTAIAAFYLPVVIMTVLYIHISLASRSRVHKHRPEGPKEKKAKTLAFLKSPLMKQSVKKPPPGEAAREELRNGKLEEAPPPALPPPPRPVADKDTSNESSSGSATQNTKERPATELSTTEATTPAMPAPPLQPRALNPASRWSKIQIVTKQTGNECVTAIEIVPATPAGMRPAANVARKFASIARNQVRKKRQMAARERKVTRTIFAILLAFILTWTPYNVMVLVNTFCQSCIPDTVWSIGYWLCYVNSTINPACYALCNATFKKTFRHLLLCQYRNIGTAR
In short: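 Read-out: FLIPR fluorescence (ex 488, em 540 nm) over 60 s. Recombinant CHO lines are dye-loaded (Fluo-3 AM or Calcium 3) with 1 mM probenecid. For antagonist mode, compound is pre-incubated 15 min, or co-applied, then carbachol is added at 3× EC80 per subtype.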

Structure (SMILES)	EC50 (M1 muscarinic receptor) [µM]	Emax (M1 muscarinic receptor) [%]	EC50 (M2 muscarinic receptor) [µM]	Emax (M2 muscarinic receptor) [%]	EC50 (M3 muscarinic receptor) [µM]	Emax (M3 muscarinic receptor) [%]	EC50 (M4 muscarinic receptor) [µM]	Emax (M4 muscarinic receptor) [%]
CC(C)(C)CCN1CCC2(CC1)CC(F)(F)C(O)c1ccccc12 (stereo not shown) [compound 120]	< 2	25 to 100	< 2	25 to 100	> 5	< 25	< 2	25 to 100
CC(=O)N1CCCC(C(=O)N[C@H]2CCC3(CCN(CCC(C)(C)C)CC3)c3ccccc32)C1 (stereo partly shown) [compound 121]	< 2	25 to 100	> 5	< 25	> 5	< 25	< 2	25 to 100
CC(=O)N(C1CC1)C1CCC2(CCN(CCC(C)(C)C)CC2)c2ccccc21 (stereo not shown) [compound 122]	< 2	25 to 100	> 5	< 25	> 5	< 25	< 2	25 to 100
CC(=O)N(C)[C@H]1CCC2(CCN(CCC(C)(C)C)CC2)c2ccccc21 [compound 123]	< 2	25 to 100	> 5	< 25	> 5	< 25	< 2	25 to 100
CC(C)(C)CCN1CCC2(CC[C@H](NC(=O)CCN3CCCC3=O)c3ccccc32)CC1 [compound 124]	< 2	25 to 100	< 2	25 to 100	> 5	< 25	< 2	25 to 100
CC(C)CCN1CCC2(CC[C@H](NC(=O)C3CC3)c3ccccc32)CC1 [compound 125]	< 2	25 to 100	2 to 5	< 25	> 5	< 25	< 2	25 to 100
CC(C)[C@@H](C(=O)N[C@@H]1CCC2(CCN(CCC(C)(C)C)CC2)c2ccccc21)N1CCCC1=O [compound 126]	> 5	< 25	> 5	< 25	> 5	< 25	< 2	25 to 100
CCN(C(=O)CCC(=O)NC)[C@H]1CCC2(CCN(CCC(C)(C)C)CC2)c2ccccc21 [compound 127]	< 2	25 to 100	2 to 5	< 25	> 5	< 25	< 2	25 to 100
CCN(C(=O)c1cncn1C)[C@H]1CCC2(CCN(CCC(C)(C)C)CC2)c2ccccc21 [compound 128]	2 to 5	25 to 100	> 5	< 25	> 5	< 25	< 2	25 to 100
Cn1cc(C(=O)N[C@@H]2CCC3(CCN(CCC(C)(C)C)CC3)c3ccccc32)cn1 [compound 129]	> 5	< 25	> 5	< 25	> 5	< 25	< 2	25 to 100
CC(=O)N1CCC(C(=O)N(C)[C@H]2CCC3(CCN(CCC(C)(C)C)CC3)c3ccccc32)CC1 [compound 132]	2 to 5	25 to 100	> 5	< 25	> 5	< 25	< 2	25 to 100
